Laboratory results as given in patent US20230136075A1, “TREATMENT FOR SEPSIS-INDUCED ORGAN DYSFUNCTION” (The Florey Institute of Neuroscience and Mental Health, priority 2020, published 2023).

Tested on: patients with septic shock
Experiment: Randomised, double-blind, placebo-controlled trial of mega-dose vitamin C for septic shock (Example 4)
Type: in vivo
Details: trial ongoing
From the text: A randomised, double-blind, placebo-controlled trial is being conducted to evaluate whether the administration of intravenous mega-dose vitamin C (60 g/day) increases urine output in patients with septic shock admitted to an intensive care unit (ICU).
Patients admitted to the Austin Hospital ICU with the primary diagnosis of septic shock defined according to the Sepsis-3 criteria are screened for eligibility. All the diagnostic criteria of septic shock (based on the SEPSIS-3 criteria) were to be fulfilled simultaneously within the last 24 hours, and vasopressors infused continuously at enrolment. Definition of sepsis is that of suspected or documented infection and an acute increase of ≥2 sequential organ failure assessment (SOFA) points consequent to the infection (a proxy of organ dysfunction). Definition of septic shock are sepsis and need for vasopressor therapy to keep mean arterial pressure (MAP) >65 mmHg for >2 hours and lactate >2 mmol/L, despite adequate fluid resuscitation.
All eligible patients with septic shock are randomised to receive either: • (i) Mega-dose Vitamin C intravenous infusion (sodium ascorbate 30 grams [100 ml] diluted with 150 ml of 5% dextrose infused intravenously over 1 hour followed by sodium ascorbate 30 grams [100 ml] diluted with 150 ml of 5% dextrose infused intravenously over 5 hours); or • (ii) Placebo intravenous infusion administered once (250 ml of 5% dextrose infused intravenously over 1 hour followed by 250 ml of 5% dextrose infused intravenously over 5 hours).
The study infusions are identical in appearance and are supplied in identical 250m1 5% dextrose bags prepared by ICU staff.
Vitamin C levels and arterial blood gas samples are measured at five time points (before loading infusion; after loading dose; 3 hours after the beginning of maintenance infusion; at the end of maintenance infusion; and, 24 hours following the beginning of the study infusion). A single urinary assessment is made of oxalate crystals obtained from testing a 24-hour collection of urine obtained at 24 hours following the beginning of the study infusion. Arterial blood gas samples are also measured to monitor for changes in serum sodium (Na+) and potassium (K+) levels at four time points (before loading infusion [baseline]; after loading dose; 3 hours after the beginning of maintenance infusion; and, at the end of maintenance infusion). The study infusion is stopped if the serum Na+ levels increases >10 mEq/L from the baseline value or absolute serum Na+ levels>160 mEq/L. Information is also collected on fluid balance, intravenous fluid therapy, use of vasopressor drugs and dosage, use of mechanical ventilation and renal replacement therapy and all biochemical and hematological and blood gas analysis variables as well as patient demographics, diagnosis, vital signs and illness severity score, ICU and hospital outcomes (e.g. admission and discharge dates as well as ICU and hospital survival status).
The primary efficacy outcome for this study is the cumulative urine output for 24 consecutive hours following the beginning of the study infusion.
Data analysis is performed on an intention-to-treat basis. Summary statistics are used to describe the clinical data and presented as mean±standard deviation, median with interquartile range (IQR) or percentages as appropriate. Chi-squared analysis with Fisher's exact test (as appropriate), and Student's t-test (Mann Whitney U test for non-normal distributions) are used to compare data between the active treatment group and the control group with statistical significance declared for probability values of less than 0.05. Analysis of the outcome of excluded patients due to other trials etc. is in accordance with CONSORT guidelines.

O=C1O[C@H]([C@@H](O)CO)C([O-])=C1O.[Na+] [sodium ascorbate]
body temperature (60 g/day iv): decreases
oxalate excretion in the urine (60 g/day iv): no evidence of increased oxalate excretion
requirement for vasopressor support (60 g/day iv): decreases
serum sodium levels (60 g/day iv): no evidence of increased oxalate excretion in the urine or increases in serum sodium levels
urinary output (60 g/day iv): increases
safety concern signal (sodium ascorbate 30 g over 1 hour then 30 g over 5 hours iv (60 g/day)): no safety concern signal
